Source: patent US7300946B2, “N-(substituted arylmethyl)-4-(disubstituted methyl) piperidines and pyridines” (Bayer CropScience AG, priority 2002, dated 2007)

System: tobacco budworm (Heliothis virescens [Fabricius])
Assay: surface-treated diet test against the tobacco budworm
Assay type: in vivo
Settings: tobacco budworm second instar larvae, surface-treated diet, 0.25 millimoles of candidate insecticide on the surface of the diet, five-day exposure; for Percent Mortality: compared to total number of insects infested; for Percent Growth Inhibition: inhibition of insect weight relative to untreated controls
Summary of the method: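 Wheat germ artificial diet surface-treated with 40 µL of 50 mM DMSO stock diluted 1:7 in 1:1 water/acetone (0.25 millimolar on diet), or sub-multiples for rate tests. One second-instar larva per well, 25° C, 60% RH, 5 days; percent weight inhibition vs DMSO controls and percent mortality.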

Row | Structure (SMILES) | Percent Mortality [%] | Percent Growth Inhibition [%]
1 | CCn1nnc(-c2ccc(CN3CCC(C(OC(=O)Nc4cccc(C(F)(F)F)c4)c4ccc(OC)cc4)CC3)cc2)n1 (stereo not shown) [Compound 605] | 100 | 100
2 | CCn1nnc(-c2ccc(CN3CCC(C(OC(=O)Nc4ccc(C(F)(F)F)cc4)c4ccc(OC)cc4)CC3)cc2)n1 (stereo not shown) [Compound 606] | 100 | 100
3 | CCn1nnc(-c2ccc(CN3CCC(C(OC(=O)Nc4ccc(-c5ccccc5)cc4)c4ccc(OC)cc4)CC3)cc2)n1 (stereo not shown) [Compound 607] | 100 | 100
4 | CCn1nnc(-c2ccc(CN3CCC(C(OC(=O)Nc4ccc(Cl)cc4)c4ccc(OC)c(OC)c4)CC3)cc2)n1 (stereo not shown) [Compound 608] | 83 | 100
5 | CCn1nnc(-c2ccc(CN3CCC(C(OC(=O)Nc4cc(F)cc(F)c4)c4ccc(OC)c(OC)c4)CC3)cc2)n1 (stereo not shown) [Compound 609] | 33 | 100
6 | CCn1nnc(-c2ccc(CN3CCC(C(OC(=O)Nc4cc(F)cc(F)c4)c4ccc(C(F)(F)F)cc4)CC3)cc2)n1 (stereo not shown) [Compound 610] | 100 | 100
7 | CCn1nnc(-c2ccc(CN3CCC(C(OC(=O)Nc4ccc(Cl)cc4)c4ccc(-c5ccccc5)cc4)CC3)cc2)n1 (stereo not shown) [Compound 611] | 83 | 100
8 | CCn1nnc(-c2ccc(CN3CCC(C(OC(=O)Nc4ccc(Cl)c(Cl)c4)c4ccc(-c5ccccc5)cc4)CC3)cc2)n1 (stereo not shown) [Compound 612] | 0 | 48
9 | CCn1nnc(-c2ccc(CN3CCC(C(OC(=O)Nc4ccc(F)c(F)c4)c4ccc(-c5ccccc5)cc4)CC3)cc2)n1 (stereo not shown) [Compound 613] | 83 | 100
10 | CCn1nnc(-c2ccc(CN3CCC(C(OC(=O)Nc4cc(F)cc(F)c4)c4ccc(-c5ccccc5)cc4)CC3)cc2)n1 (stereo not shown) [Compound 614] | 16 | 99
11 | CCn1nnc(-c2ccc(CN3CCC(C(OC(=O)Nc4ccc(C(F)(F)F)cc4)c4ccc(-c5ccccc5)cc4)CC3)cc2)n1 (stereo not shown) [Compound 615] | 17 | 72
12 | CCn1nnc(-c2ccc(CN3CCC(C(OC(=O)Nc4ccc(Cl)cc4)c4ccc(Oc5ccccc5)cc4)CC3)cc2)n1 (stereo not shown) [Compound 616] | 100 | 100
13 | CCn1nnc(-c2ccc(CN3CCC(C(OC(=O)Nc4ccc(Cl)c(Cl)c4)c4ccc(Oc5ccccc5)cc4)CC3)cc2)n1 (stereo not shown) [Compound 617] | 0 | 14
14 | CCn1nnc(-c2ccc(CN3CCC(C(OC(=O)Nc4ccc(F)c(F)c4)c4ccc(Oc5ccccc5)cc4)CC3)cc2)n1 (stereo not shown) [Compound 618] | 100 | 100
15 | CCn1nnc(-c2ccc(CN3CCC(C(OC(=O)Nc4cc(F)cc(F)c4)c4ccc(Oc5ccccc5)cc4)CC3)cc2)n1 (stereo not shown) [Compound 619] | 17 | 100
16 | CCn1nnc(-c2ccc(CN3CCC(C(OC(=O)Nc4cccc(C(F)(F)F)c4)c4ccc(Oc5ccccc5)cc4)CC3)cc2)n1 (stereo not shown) [Compound 620] | 0 | 29
17 | CCn1nnc(-c2ccc(CN3CCC(C(OC(=O)Nc4ccc(-c5ccccc5)cc4)c4ccc(Oc5ccccc5)cc4)CC3)cc2)n1 (stereo not shown) [Compound 621] | 0 | 4
18 | CCn1nnc(-c2ccc(CN3CCC(C(OC(=O)Nc4ccc(Oc5ccccc5)cc4)c4ccc(Oc5ccccc5)cc4)CC3)cc2)n1 (stereo not shown) [Compound 622] | 0 | 4
19 | O=C(Nc1ccc(Cl)cc1)OC(c1ccc(C(F)(F)F)cc1)C1CCN(Cc2ccc(-c3ccccn3)cc2)CC1 (stereo not shown) [Compound 627] | 100 | 100
20 | O=C(Nc1cc(F)cc(F)c1)OC(c1ccc(C(F)(F)F)cc1)C1CCN(Cc2ccc(-c3ccccn3)cc2)CC1 (stereo not shown) [Compound 628] | 100 | 100
